Measurements from publication PMC3626250, “Effects of Borneol on Pharmacokinetics and Tissue Distribution of Notoginsenoside R1 and Ginsenosides Rg1 and Re in Panax notoginseng in Rabbits” (Journal of Analytical Methods in Chemistry, 2013).

What was measured:
Caco-2 cells = assay: MTT cytotoxicity assay toward Caco-2 cells; format: cell-based; conditions: chosen for transport study
Protocol: The Caco-2 cells were cultured in Dulbecco's modified Eagle's medium (DMEM) supplemented with 20% foetal bovine serum, 1% nonessential amino acids and penicillin-streptomycin, at 37°C in an atmosphere with a relative humidity of 95% and a CO2 flow of 5%. Medium was replaced every 2-3 days. When the cell monolayer reached 80% confluence, the cells were detached with a solution of 0.02% EDTA and 0.25% trypsin. The vinblastine-selected Caco-2 cells were cultivated in the presence of 10 nM vinblastine to induce P-glycoprotein (P-gp) expression. The culture medium was changed to a fresh medium without vinblastine 24 h before experiments, and the cells were used between passages 25 and 46. Prior to the transport study, cytotoxicity of NGR1, GRg1, GRe, and Borneol toward Caco-2 cells was determined using MTT assays. Noncytotoxic concentrations of 500 μM NGR1, GRg1, GRe, and 200 μM Borneol (dissolved in DMSO) were chosen for transport study.

[1] = system: vinblastine-selected Caco-2 cells; assay: Transport studies across Caco-2 monolayers (P app, efflux ratio); format: in vitro ADME; conditions: for increase of P app (apical-to-basolateral) by Borneol / increase of P app (basolateral-to-apical) by Borneol: 200 μM Borneol, Caco-2; for P app values: Caco-2 monolayers, without Borneol; for substrate of P-gp: concluded from efflux ratio in vinblastine-selected Caco-2 cells
Protocol: Medium was replaced every 2-3 days. […] The vinblastine-selected Caco-2 cells were cultivated in the presence of 10 nM vinblastine to induce P-glycoprotein (P-gp) expression. […] Prior to the transport study, cytotoxicity of NGR1, GRg1, GRe, and Borneol toward Caco-2 cells was determined using MTT assays.
In transport studies, vinblastine-selected Caco-2 cells were seeded on polycarbonate filter of transwells for 18–21 days before starting transport study, and the monolayers with the transepithelial electrical resistance (TEER) values greater than 300 Ωcm^2 were used. Caco-2 monolayers were rinsed twice with Hanks' balanced salt solution (HBSS) and preincubated in HBSS at 37°C for 30 min before starting experiments. To start the experiments, 500 μM of NGR1, GRg1, and GRe in final concentrations were added to the donor side with or without 200 μM Borneol and then incubated at 37°C. […] After each sampling, 0.1 mL of HBSS was added to the receiver chamber to maintain a constant volume. All the experiments were performed five times in duplicate. The collected samples were stored at −20°C until HPLC analysis. During the above transport studies, the TEER values were also monitored before and at the end of each experiment. Apparent permeability coefficients (P app) were then calculated according to the following equation: (1) Papp=(dC/dt×V)/(A×C0), where dC/dt is the rate of the test compound appearing in the receiver chamber, V is the volume of the solution in the receiver chamber, A is the cell monolayer surface area, and C 0 is the initial concentration of the test compound added in the donor chamber.
The efflux ratio (Er) was calculated using the following equation: (2) Er=Papp(basolateral-apical)/Papp(apical-basolateral).

[2] = Caco-2 Model, 500 μM compound, with or without 200 μM Borneol (see label)

SMILES	Noncytotoxic concentration (Caco-2 cells)	increase of P app (apical-to-basolateral) by Borneol [1]	increase of P app (basolateral-to-apical) by Borneol [1]	P app values [1]	substrate of P-gp [1]	P app (apical to basolateral) [1, 2]	P app (basolateral to apical) [1, 2]	E r ([1]; efflux ratio P app(basolateral-apical)/P app(apical-basolateral), with or without 200 μM Borneol (see label))
CC(C)=CCC[C@](C)(O[C@@H]1O[C@H](CO)[C@@H](O)[C@H](O)[C@H]1O)[C@H]1CC[C@]2(C)[C@@H]1[C@H](O)C[C@@H]1[C@@]3(C)CC[C@H](O)C(C)(C)[C@@H]3[C@@H](O[C@@H]3O[C@H](CO)[C@@H](O)[C@H](O)[C@H]3O[C@@H]3O[C@@H](C)[C@H](O)[C@@H](O)[C@H]3O)C[C@]12C [GRe, ginsenoside Re]	500 µM	2.3 fold	2.4 fold	less than 10^−6 cm/s	seemed not to be substrates of P-gp			
CC(C)=CCC[C@](C)(O[C@@H]1O[C@H](CO)[C@@H](O)[C@H](O)[C@H]1O)[C@H]1CC[C@]2(C)[C@@H]1[C@H](O)C[C@@H]1[C@@]3(C)CC[C@H](O)C(C)(C)[C@@H]3[C@@H](O[C@@H]3O[C@H](CO)[C@@H](O)[C@H](O)[C@H]3O)C[C@]12C [GRg1, ginsenoside Rg1]	500 µM	2.6 fold	2.6 fold	less than 10^−6 cm/s	seemed not to be substrates of P-gp			
CC(C)=CCC[C@](C)(O[C@@H]1O[C@H](CO)[C@@H](O)[C@H](O)[C@H]1O)[C@H]1CC[C@]2(C)[C@@H]1[C@H](O)C[C@@H]1[C@@]3(C)CC[C@H](O)C(C)(C)[C@@H]3[C@@H](O[C@@H]3O[C@H](CO)[C@@H](O)[C@H](O)[C@H]3O[C@@H]3OC[C@@H](O)[C@H](O)[C@H]3O)C[C@]12C [NGR1, notoginsenoside R1]	500 µM	2.9 fold	2.9 fold	less than 10^−6 cm/s	seemed not to be substrates of P-gp	0.64 ± 0.08 × 10^−7 cm/s	0.68 ± 0.12 × 10^−7 cm/s	1.06
